{
  "source": "patent US9212201B2",
  "about": "“Antifungal and antiparasitic polyene macrolides” (priority 2010, dated 2015)",
  "assay_in_all_cases": "In vitro antifungal susceptibility CLSI M27-A2 (MIC, MFC)",
  "format_in_all_cases": "cell-based",
  "key": {"[1]": {"system": "C. lusitaniae", "settings": "C. lusitaniae (10)"}, "[2]": {"system": "C. tropicalis", "settings": "C. tropicalis (10)"}, "[3]": {"system": "Other Candida species (C. lipolytica, C. sake, C. sphaerica, C. norvegica)", "settings": "Other Candida spp. (4)"}, "[4]": {"system": "C. rugosa", "settings": "C. rugosa (2)"}, "[5]": {"system": "C. glabrata", "settings": "C. glabrata (10)"}, "[6]": {"system": "C. albicans", "settings": "C. albicans (10)"}, "[7]": {"system": "C. krusei", "settings": "C. krusei (10)"}, "[8]": {"system": "C. kefyr", "settings": "C. kefyr (10)"}, "[9]": {"system": "C. guilliermondii", "settings": "C. guilliermondii (2)"}, "[10]": {"system": "C. parapsilosis", "settings": "C. parapsilosis (10)"}},
  "data": [
    {"smiles": "C[C@@H](c1ncncc1F)[C@](O)(Cn1cncn1)c1ccc(F)cc1F", "note": "[Voriconazole, voriconazole]", "values": [
      {"measurement": "MIC Range", "setting": "[1]", "result": "<0.03 to 0.06", "unit": "µg/mL"},
      {"measurement": "MIC", "setting": "[1]; Clavispora lusitaniae, read-out: GM (geometric mean MIC)", "result": 0.03, "unit": "µg/mL"},
      {"measurement": "MIC50", "setting": "[1]; Clavispora lusitaniae, read-out: MIC50", "result": "< 0.03", "unit": "µg/mL"},
      {"measurement": "MIC90", "setting": "[1]; Clavispora lusitaniae, read-out: MIC90", "result": 0.03, "unit": "µg/mL"},
      {"measurement": "MIC Range", "setting": "[2]", "result": "<0.03 to 0.5", "unit": "µg/mL"},
      {"measurement": "MIC", "setting": "[2]; Candida tropicalis, read-out: GM (geometric mean MIC)", "result": 0.13, "unit": "µg/mL"},
      {"measurement": "MIC50", "setting": "[2]; Candida tropicalis, read-out: MIC50", "result": 0.06, "unit": "µg/mL"},
      {"measurement": "MIC90", "setting": "[2]; Candida tropicalis, read-out: MIC90", "result": 0.12, "unit": "µg/mL"},
      {"measurement": "MIC Range", "setting": "[3]", "result": "<0.03 to 1.0", "unit": "µg/mL"},
      {"measurement": "MIC", "setting": "[3]; read-out: GM (geometric mean MIC)", "result": 0.39, "unit": "µg/mL"},
      {"measurement": "MIC50", "setting": "[3]; read-out: MIC50", "result": 0.06, "unit": "µg/mL"},
      {"measurement": "MIC Range", "setting": "[4]", "result": 0.25, "unit": "µg/mL"},
      {"measurement": "MIC", "setting": "[4]; Diutina rugosa, read-out: GM (geometric mean MIC)", "result": 0.25, "unit": "µg/mL"},
      {"measurement": "MIC Range", "setting": "[5]", "result": "0.12 to 2", "unit": "µg/mL"},
      {"measurement": "MIC", "setting": "[5]; Nakaseomyces glabratus, read-out: GM (geometric mean MIC)", "result": 0.56, "unit": "µg/mL"},
      {"measurement": "MIC50", "setting": "[5]; Nakaseomyces glabratus, read-out: MIC50", "result": 0.5, "unit": "µg/mL"},
      {"measurement": "MIC90", "setting": "[5]; Nakaseomyces glabratus, read-out: MIC90", "result": 0.5, "unit": "µg/mL"},
      {"measurement": "MIC Range", "setting": "[6]", "result": "<0.03 to 0.25", "unit": "µg/mL"},
      {"measurement": "MIC", "setting": "[6]; Candida albicans, read-out: GM (geometric mean MIC)", "result": 0.06, "unit": "µg/mL"},
      {"measurement": "MIC50", "setting": "[6]; Candida albicans, read-out: MIC50", "result": 0.03, "unit": "µg/mL"},
      {"measurement": "MIC90", "setting": "[6]; Candida albicans, read-out: MIC90", "result": 0.06, "unit": "µg/mL"},
      {"measurement": "MIC Range", "setting": "[7]", "result": "0.25 to 0.5", "unit": "µg/mL"},
      {"measurement": "MIC", "setting": "[7]; Pichia kudriavzevii, read-out: GM (geometric mean MIC)", "result": 0.425, "unit": "µg/mL"},
      {"measurement": "MIC50", "setting": "[7]; Pichia kudriavzevii, read-out: MIC50", "result": 0.25, "unit": "µg/mL"},
      {"measurement": "MIC90", "setting": "[7]; Pichia kudriavzevii, read-out: MIC90", "result": 0.5, "unit": "µg/mL"},
      {"measurement": "MIC Range", "setting": "[8]", "result": "<0.03 to 16", "unit": "µg/mL"},
      {"measurement": "MIC", "setting": "[8]; Kluyveromyces marxianus, read-out: GM (geometric mean MIC)", "result": 1.63, "unit": "µg/mL"},
      {"measurement": "MIC50", "setting": "[8]; Kluyveromyces marxianus, read-out: MIC50", "result": "< 0.03", "unit": "µg/mL"},
      {"measurement": "MIC90", "setting": "[8]; Kluyveromyces marxianus, read-out: MIC90", "result": 0.6, "unit": "µg/mL"},
      {"measurement": "MIC Range", "setting": "[9]", "result": 0.06, "unit": "µg/mL"},
      {"measurement": "MIC", "setting": "[9]; Meyerozyma guilliermondii, read-out: GM (geometric mean MIC)", "result": 0.06, "unit": "µg/mL"},
      {"measurement": "MIC Range", "setting": "[10]", "result": "<0.03 to 0.12", "unit": "µg/mL"},
      {"measurement": "MIC", "setting": "[10]; Lodderomyces parapsilosis, read-out: GM (geometric mean MIC)", "result": 0.04, "unit": "µg/mL"},
      {"measurement": "MIC50", "setting": "[10]; Lodderomyces parapsilosis, read-out: MIC50", "result": "< 0.03", "unit": "µg/mL"},
      {"measurement": "MIC90", "setting": "[10]; Lodderomyces parapsilosis, read-out: MIC90", "result": 0.03, "unit": "µg/mL"}
    ]}
  ]
}
